Measured values taken from US20260070922A1, “PYRAZOLE AND IMIDAZOLE DERIVATIVES AS DUAL OREXIN AND KAPPA-OPIOID RECEPTORS MODULATORS COMPOSITION, METHODS FOR TREATING NEUROLOGICAL AND PSYCHIATRIC DISORDERS” (HAGER BIOSCIENCES, LLC, priority 2022, published 2026).
pIC50: −log10 of the molar value.

Tests used:
[1] = target: T1, human orexin-2 receptor (OX2R) (Homo sapiens, UniProt O43614); test: In vitro orexin antagonism assay: intracellular calcium measurement (FLIPR), orexin-A 3 nM as agonist; format: cell-based; details: for inhibition at 1 µM: read-out: OX2R, % Inh. @ 1 uM
T1 construct: expressed in transfected cells; host or cells: CHO cells (G418 selection)
T1 sequence (O43614 1-444): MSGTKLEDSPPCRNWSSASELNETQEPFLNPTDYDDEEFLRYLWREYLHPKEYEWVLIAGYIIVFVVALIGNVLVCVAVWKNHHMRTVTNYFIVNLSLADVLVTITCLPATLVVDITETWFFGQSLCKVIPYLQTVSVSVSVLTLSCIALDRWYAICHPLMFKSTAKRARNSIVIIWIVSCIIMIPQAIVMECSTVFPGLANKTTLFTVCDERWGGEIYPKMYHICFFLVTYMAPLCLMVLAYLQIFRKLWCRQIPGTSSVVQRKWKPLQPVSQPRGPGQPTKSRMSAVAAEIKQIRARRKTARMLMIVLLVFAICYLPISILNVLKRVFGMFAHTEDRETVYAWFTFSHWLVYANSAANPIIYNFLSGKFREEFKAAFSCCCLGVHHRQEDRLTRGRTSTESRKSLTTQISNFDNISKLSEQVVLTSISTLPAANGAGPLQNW
Experimental: Antagonistic activities on both orexin receptors have been measured for each example compound using the following procedure:
(§1) In Vitro Orexin Antagonism Measurement Assay: Intracellular Calcium Measurements:
(§2) Chinese hamster ovary (CHO) cells expressing the human […] and the human orexin-2 receptor, respectively, are grown in culture medium (Ham F-12 with L-Glutamine) containing 300 μg/mL G418, 100 U/mL penicillin, 100 μg/mL streptomycin and 10% heat inactivated fetal calf serum (FCS). The cells are seeded at 20,000 cells/well into 384-well black clear bottom sterile plates (Greiner). The seeded plates are incubated overnight at 37° C. in 5% 002. Human orexin-A as an agonist is prepared as 1 mM stock solution in MeOH: water (1:1), diluted in HBSS containing 0.1% bovine serum albumin (BSA), NaHCO3: 0.375 g/L and 20 mM HEPES for use in the assay at a final concentration of 3 nM.
(§3) Antagonists are prepared as 10 mM stock solution in DMSO, then diluted in 384-well plates using DMSO followed by a transfer of the dilutions into in HBSS containing 0.1% bovine serum albumin (BSA), NaHCO3: 0.375 g/L and 20 mM HEPES. On the day of the assay, 50 μL of staining buffer (HBSS containing 1% FCS, 20 mM HEPES, NaHCO3: 0.375 g/L, 5 mM probenecid (Sigma) and 3 μM of the fluorescent calcium indicator fluo-4 AM (1 mM stock solution in DMSO, containing 10% pluronic) is added to each well. The 384-well cell-plates are incubated for 50 min at 37° C. in 5% CO2 followed by equilibration at RT for 30 min before measurement.
(§4) Within the Fluorescent Imaging Plate Reader (FLIPR Tetra, Molecular Devices), antagonists are added to the plate in a volume of 10 μL/well, incubated for 120 min and finally 10 μL/well of agonist is added. Fluorescence is measured for each well at 1 second intervals, and the height of each fluorescence peak is compared to the height of the fluorescence peak induced by 3 nM orexin-A with vehicle in place of antagonist. The IC50 value (the concentration of compound needed to inhibit 50% of the agonistic response) is determined and may be normalized using the obtained IC50 value of an on-plate reference compound. Optimized conditions were achieved by adjustment of pipetting speed and cell splitting regime. The calculated IC50values may fluctuate depending on the daily cellular assay performance. Fluctuations of this kind are known to those skilled in the art. In the case where IC50values have been determined several times for the same compound, the geometric mean has been given.

[2] = target: T2, Orexin type 1 (OX1R) receptor (Homo sapiens, UniProt O43613); test: as above; format: cell-based; details: for inhibition at 1 µM: read-out: OX1R, % Inh. @ 1 uM; for pIC50: first value of IC50/Kb cell; for Kb: second value of IC50/Kb cell
T2 construct: expressed in transfected cells; host or cells: CHO cells (G418 selection)
T2 sequence (O43613 1-425): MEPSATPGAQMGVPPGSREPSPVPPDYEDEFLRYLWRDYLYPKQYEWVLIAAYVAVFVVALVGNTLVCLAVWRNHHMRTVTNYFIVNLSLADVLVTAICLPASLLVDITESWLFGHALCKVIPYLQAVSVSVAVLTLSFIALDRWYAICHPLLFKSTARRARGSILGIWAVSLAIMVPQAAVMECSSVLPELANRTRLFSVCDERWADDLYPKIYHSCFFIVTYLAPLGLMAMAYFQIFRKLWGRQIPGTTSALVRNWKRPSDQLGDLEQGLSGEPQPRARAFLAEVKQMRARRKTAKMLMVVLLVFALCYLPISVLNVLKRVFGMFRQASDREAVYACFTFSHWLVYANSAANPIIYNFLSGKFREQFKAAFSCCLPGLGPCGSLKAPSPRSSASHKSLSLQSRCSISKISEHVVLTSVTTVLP
Experimental: as §1, §2, §3
as §4, with “art.” for “art. In the case where IC50values have been determined several times for the same compound, the geometric mean has been given.”

## O=C(c1c(-c2ncccn2)nn2ccccc12)N1C2CCC1(COc1ccc(C(F)(F)F)cn1)CC2 [Example 161]
[1]
  inhibition at 1 µM: 6%
[2]
  inhibition at 1 µM: 44%

## C[C@@]1(COc2cnc(C(F)(F)F)cn2)CCCN1C(=O)c1nn2c(c1-c1ccccc1)COCC2 [Example 162]
[1]
  inhibition at 1 µM: 0%
[2]
  inhibition at 1 µM: 36%

## C[C@@]1(COc2cnc(C(F)(F)F)cn2)CCCN1C(=O)c1nc2ccccn2c1-c1ccccc1 [Example 163]
[1]
  inhibition at 1 µM: 11%
[2]
  pIC50: 6.11
  inhibition at 1 µM: 75%
  Kb: 0.162 µM

## C[C@@]1(COc2cnc(C(F)(F)F)cn2)CCCN1C(=O)c1c(-c2ccccn2)nn2ccccc12 [Example 164]
[1]
  inhibition at 1 µM: 20%
[2]
  pIC50: 6.52
  inhibition at 1 µM: 84%
  Kb: 0.064 µM

## C[C@@]1(COc2cnc(C(F)(F)F)cn2)CCCN1C(=O)c1nn2c(c1-c1ccccc1)OCCC2 [Example 165]
[1]
  inhibition at 1 µM: 6%
[2]
  inhibition at 1 µM: 50%

## C[C@@]1(COc2cnc(C(F)(F)F)cn2)CCCN1C(=O)c1c(-c2ncccn2)nn2ccccc12 [Example 166]
[1]
  inhibition at 1 µM: 10%
[2]
  inhibition at 1 µM: 53%

## C[C@@]1(COc2cnc(C(F)(F)F)cn2)CCCN1C(=O)c1nn2cccnc2c1-c1ccccc1 [Example 167]
[1]
  inhibition at 1 µM: 20%
[2]
  pIC50: 6.49
  inhibition at 1 µM: 82%
  Kb: 0.069 µM

## C[C@@]1(COc2cnc(C(F)(F)F)cn2)CCCN1C(=O)c1c(-c2ccccc2)nn2cccnc12 [Example 168]
[1]
  inhibition at 1 µM: 28%
[2]
  pIC50: 6.32
  inhibition at 1 µM: 72%
  Kb: 0.1 µM

## C[C@@]1(COc2cnc(C(F)(F)F)cn2)CCCN1C(=O)c1c(-c2ccccc2)nn2c1COCC2 [Example 169]
[1]
  inhibition at 1 µM: 15%
[2]
  inhibition at 1 µM: 2%

## C[C@@]1(COc2cnc(C(F)(F)F)cn2)CCCN1C(=O)c1nn2ccccc2c1-c1ccccc1 [Example 170]
[1]
  inhibition at 1 µM: 23%
[2]
  pIC50: 6.34
  inhibition at 1 µM: 85%
  Kb: 0.097 µM

## O=C(c1nn2ccccc2c1-c1ccccn1)N1CCC[C@H]1Cc1nc(-c2ccccn2)no1 [Example 175]
[1]
  inhibition at 1 µM: 29%
[2]
  pIC50: 7.96
  inhibition at 1 µM: 93%
  Kb: 0.002 µM

## O=C(c1nn2ccccc2c1-c1ccccn1)N1CCC[C@H]1Cc1nc(-c2ccc(F)cn2)no1 [Example 176]
[1]
  inhibition at 1 µM: 40%
[2]
  pIC50: 7.92
  inhibition at 1 µM: 93%
  Kb: 0.002 µM

## O=C(c1nc2ccccn2c1-c1ccccn1)N1CCC[C@H]1COc1ccc(C(F)(F)F)cn1 [Example 179]
[1]
  inhibition at 1 µM: 12%
[2]
  pIC50: 8.10
  inhibition at 1 µM: 99%
  Kb: 0.002 µM

## O=C(c1nc2ccccn2c1-c1ccccn1)N1CCC[C@H]1Cn1ccc(-c2ccccn2)n1 [Example 180]
[1]
  inhibition at 1 µM: 27%
[2]
  pIC50: 7.77
  inhibition at 1 µM: 97%
  Kb: 0.004 µM

## O=C(c1nn2ccccc2c1-c1ccccn1)N1CCC[C@H]1Cn1ccc(-c2ccc(F)cn2)n1 [Example 182]
[1]
  inhibition at 1 µM: 59%
[2]
  pIC50: 7.72
  inhibition at 1 µM: 96%
  Kb: 0.004 µM

## O=C(c1nc2n(c1-c1ccccn1)CCOC2)N1CCC[C@H]1COc1ccc(C(F)(F)F)cn1 [Example 184]
[1]
  inhibition at 1 µM: 10%
[2]
  inhibition at 1 µM: 42%

## O=C(c1nn2cccnc2c1-c1ccccn1)N1CCC[C@H]1Cn1ccc(-c2ccccn2)n1 [Example 185]
[1]
  inhibition at 1 µM: 61%
[2]
  pIC50: 7.80
  inhibition at 1 µM: 94%
  Kb: 0.003 µM

## O=C(c1nn2cccnc2c1-c1ccccn1)N1CCC[C@H]1Cc1nc(-c2ccccn2)no1 [Example 188]
[1]
  inhibition at 1 µM: 23%
[2]
  pIC50: 7.54
  inhibition at 1 µM: 82%
  Kb: 0.006 µM

## O=C(c1nn2cccnc2c1-c1ccccn1)N1CCC[C@H]1Cc1nc(-c2ccc(F)cn2)no1 [Example 189]
[1]
  inhibition at 1 µM: 43%
[2]
  pIC50: 7.74
  inhibition at 1 µM: 94%
  Kb: 0.004 µM

## O=C(c1nn2cccnc2c1-c1ccccn1)N1CCC[C@H]1COc1ccc(C(F)(F)F)cn1 [Example 190]
[1]
  inhibition at 1 µM: 28%
[2]
  pIC50: 8.30
  inhibition at 1 µM: 91%
  Kb: 0.001 µM

## O=C(c1c(-c2ncccn2)nn2ccccc12)N1CCC[C@H]1COc1ccc(C(F)(F)F)cn1 [Example 191]
[1]
  inhibition at 1 µM: 11%
[2]
  pIC50: 7.31
  inhibition at 1 µM: 100%
  Kb: 0.01 µM

## O=C(c1c(-c2ccccn2)nn2ccccc12)N1CCC[C@H]1COc1ccc(C(F)(F)F)cn1 [Example 192]
[1]
  inhibition at 1 µM: 49%
[2]
  pIC50: 7.96
  inhibition at 1 µM: 88%
  Kb: 0.002 µM

## O=C(c1nn2cccnc2c1-c1ccccn1)N1CCC[C@H]1Cn1ccc(-c2ccc(F)cn2)n1 [Example 193]
[1]
  inhibition at 1 µM: 71%
[2]
  pIC50: 7.80
  inhibition at 1 µM: 91%
  Kb: 0.003 µM

## O=C(c1nn2c(c1-c1ccccn1)OCCC2)N1CCC[C@H]1Cn1ccc(-c2ccccn2)n1 [Example 195]
[1]
  inhibition at 1 µM: 29%
[2]
  pIC50: 7.82
  inhibition at 1 µM: 100%
  Kb: 0.003 µM

## O=C(c1nn2c(c1-c1ccccn1)COCC2)N1CCC[C@H]1Cn1ccc(-c2ccc(F)cn2)n1 [Example 196]
[1]; @ 1 uM
  OX2R, % Inh. @ 1 uM: 39%
[2]; @ 1 uM
  OX1R, % Inh. @ 1 uM: 99%
[2]
  pIC50: 7.62
  Kb: 0.005 µM

## O=C(c1nn2c(c1-c1ccccn1)OCCC2)N1CCC[C@H]1Cc1nc(-c2ccccn2)no1 [Example 199]
[1]
  inhibition at 1 µM: 8%
[2]
  inhibition at 1 µM: 64%

## O=C(c1nn2c(c1-c1ccccn1)OCCC2)N1CCC[C@H]1COc1ccc(C(F)(F)F)cn1 [Example 201]
[1]
  inhibition at 1 µM: 19%
[2]
  pIC50: 8.05
  inhibition at 1 µM: 100%
  Kb: 0.002 µM

## O=C(c1c(-c2ncccn2)nn2ccccc12)N1CCC[C@H]1Cn1ccc(-c2ccc(F)cn2)n1 [Example 203]
[1]
  inhibition at 1 µM: 78%
[2]
  pIC50: 7.77
  inhibition at 1 µM: 98%
  Kb: 0.004 µM

## O=C(c1c(-c2ncccn2)nn2ccccc12)N1CCC[C@H]1Cn1cc(-c2ccc(F)cn2)cn1 [Example 204]
[1]
  inhibition at 1 µM: 66%
[2]
  inhibition at 1 µM: 53%

## O=C(c1c(-c2ccccn2)nn2ccccc12)N1CCC[C@H]1Cn1ccc(-c2ccc(F)cn2)n1 [Example 205]
[1]; first value of IC50/Kb cell
  pIC50: 7.62
[1]
  inhibition at 1 µM: 98%
[1]; second value of IC50/Kb cell
  Kb: 0.004 µM
[2]
  pIC50: 7.92
  inhibition at 1 µM: 99%
  Kb: 0.003 µM
